Source: patent US20110263569A1, “RYANODINE CHANNEL BINDERS AND USES THEREOF” (President and Fellows of Harvard College, priority 2007, published 2011)

Each compound was assayed against T1, calstabin2 (FKBP12.6) binding to PKA-phosphorylated cardiac sarcoplasmic reticulum (CSR) (Homo sapiens, UniProt Q92736) (assay: Calstabin 2 (FKBP12.6) Assay). Conditions: 250 nM calstabin2, approximately 20 μg PKA-phosphorylated CSR, room temperature 30 minutes, immunoblot detection of calstabin2 binding.
T1 construct: from tissue
Method: PKA-phosphorylated cardiac sarcoplasmic reticulum (CSR) (approximately 20 μg) is incubated with 250 nM calstabin2 (FKBP12.6) in 100 μl binding buffer (10 mM imidazole, 300 mM sucrose, pH 7.4) with a known concentration of the test compound. Calstabin2 is added as the last reagent in the reaction mixture. The binding is performed at room temperature for 30 minutes. After the binding reaction, the mixture is centrifuged for 10 minutes at 100,000 xg. The resulting pellet is washed 4 times in binding buffer. After each wash, the tubes are centrifuged at 100,000 xg for 10 minutes. After the final wash, the supernatant is aspirated off 20 μl of 2×SDS-PAGE loading buffer is added to each pellet, and the pellet is resuspended. The mixture is heated to 90° C. for 4 minutes, and the proteins are analysed by 15% SDS-PAGE. Calstabin2 binding was detected with an αFKBP (1:2000) primary antibody and an IR-labeled anti-rabbit IgG from LiCor Biosciences as the secondary antibody. The blot was developed with a LiCor Odyssey system.

T1 sequence (Q92736 whole entry): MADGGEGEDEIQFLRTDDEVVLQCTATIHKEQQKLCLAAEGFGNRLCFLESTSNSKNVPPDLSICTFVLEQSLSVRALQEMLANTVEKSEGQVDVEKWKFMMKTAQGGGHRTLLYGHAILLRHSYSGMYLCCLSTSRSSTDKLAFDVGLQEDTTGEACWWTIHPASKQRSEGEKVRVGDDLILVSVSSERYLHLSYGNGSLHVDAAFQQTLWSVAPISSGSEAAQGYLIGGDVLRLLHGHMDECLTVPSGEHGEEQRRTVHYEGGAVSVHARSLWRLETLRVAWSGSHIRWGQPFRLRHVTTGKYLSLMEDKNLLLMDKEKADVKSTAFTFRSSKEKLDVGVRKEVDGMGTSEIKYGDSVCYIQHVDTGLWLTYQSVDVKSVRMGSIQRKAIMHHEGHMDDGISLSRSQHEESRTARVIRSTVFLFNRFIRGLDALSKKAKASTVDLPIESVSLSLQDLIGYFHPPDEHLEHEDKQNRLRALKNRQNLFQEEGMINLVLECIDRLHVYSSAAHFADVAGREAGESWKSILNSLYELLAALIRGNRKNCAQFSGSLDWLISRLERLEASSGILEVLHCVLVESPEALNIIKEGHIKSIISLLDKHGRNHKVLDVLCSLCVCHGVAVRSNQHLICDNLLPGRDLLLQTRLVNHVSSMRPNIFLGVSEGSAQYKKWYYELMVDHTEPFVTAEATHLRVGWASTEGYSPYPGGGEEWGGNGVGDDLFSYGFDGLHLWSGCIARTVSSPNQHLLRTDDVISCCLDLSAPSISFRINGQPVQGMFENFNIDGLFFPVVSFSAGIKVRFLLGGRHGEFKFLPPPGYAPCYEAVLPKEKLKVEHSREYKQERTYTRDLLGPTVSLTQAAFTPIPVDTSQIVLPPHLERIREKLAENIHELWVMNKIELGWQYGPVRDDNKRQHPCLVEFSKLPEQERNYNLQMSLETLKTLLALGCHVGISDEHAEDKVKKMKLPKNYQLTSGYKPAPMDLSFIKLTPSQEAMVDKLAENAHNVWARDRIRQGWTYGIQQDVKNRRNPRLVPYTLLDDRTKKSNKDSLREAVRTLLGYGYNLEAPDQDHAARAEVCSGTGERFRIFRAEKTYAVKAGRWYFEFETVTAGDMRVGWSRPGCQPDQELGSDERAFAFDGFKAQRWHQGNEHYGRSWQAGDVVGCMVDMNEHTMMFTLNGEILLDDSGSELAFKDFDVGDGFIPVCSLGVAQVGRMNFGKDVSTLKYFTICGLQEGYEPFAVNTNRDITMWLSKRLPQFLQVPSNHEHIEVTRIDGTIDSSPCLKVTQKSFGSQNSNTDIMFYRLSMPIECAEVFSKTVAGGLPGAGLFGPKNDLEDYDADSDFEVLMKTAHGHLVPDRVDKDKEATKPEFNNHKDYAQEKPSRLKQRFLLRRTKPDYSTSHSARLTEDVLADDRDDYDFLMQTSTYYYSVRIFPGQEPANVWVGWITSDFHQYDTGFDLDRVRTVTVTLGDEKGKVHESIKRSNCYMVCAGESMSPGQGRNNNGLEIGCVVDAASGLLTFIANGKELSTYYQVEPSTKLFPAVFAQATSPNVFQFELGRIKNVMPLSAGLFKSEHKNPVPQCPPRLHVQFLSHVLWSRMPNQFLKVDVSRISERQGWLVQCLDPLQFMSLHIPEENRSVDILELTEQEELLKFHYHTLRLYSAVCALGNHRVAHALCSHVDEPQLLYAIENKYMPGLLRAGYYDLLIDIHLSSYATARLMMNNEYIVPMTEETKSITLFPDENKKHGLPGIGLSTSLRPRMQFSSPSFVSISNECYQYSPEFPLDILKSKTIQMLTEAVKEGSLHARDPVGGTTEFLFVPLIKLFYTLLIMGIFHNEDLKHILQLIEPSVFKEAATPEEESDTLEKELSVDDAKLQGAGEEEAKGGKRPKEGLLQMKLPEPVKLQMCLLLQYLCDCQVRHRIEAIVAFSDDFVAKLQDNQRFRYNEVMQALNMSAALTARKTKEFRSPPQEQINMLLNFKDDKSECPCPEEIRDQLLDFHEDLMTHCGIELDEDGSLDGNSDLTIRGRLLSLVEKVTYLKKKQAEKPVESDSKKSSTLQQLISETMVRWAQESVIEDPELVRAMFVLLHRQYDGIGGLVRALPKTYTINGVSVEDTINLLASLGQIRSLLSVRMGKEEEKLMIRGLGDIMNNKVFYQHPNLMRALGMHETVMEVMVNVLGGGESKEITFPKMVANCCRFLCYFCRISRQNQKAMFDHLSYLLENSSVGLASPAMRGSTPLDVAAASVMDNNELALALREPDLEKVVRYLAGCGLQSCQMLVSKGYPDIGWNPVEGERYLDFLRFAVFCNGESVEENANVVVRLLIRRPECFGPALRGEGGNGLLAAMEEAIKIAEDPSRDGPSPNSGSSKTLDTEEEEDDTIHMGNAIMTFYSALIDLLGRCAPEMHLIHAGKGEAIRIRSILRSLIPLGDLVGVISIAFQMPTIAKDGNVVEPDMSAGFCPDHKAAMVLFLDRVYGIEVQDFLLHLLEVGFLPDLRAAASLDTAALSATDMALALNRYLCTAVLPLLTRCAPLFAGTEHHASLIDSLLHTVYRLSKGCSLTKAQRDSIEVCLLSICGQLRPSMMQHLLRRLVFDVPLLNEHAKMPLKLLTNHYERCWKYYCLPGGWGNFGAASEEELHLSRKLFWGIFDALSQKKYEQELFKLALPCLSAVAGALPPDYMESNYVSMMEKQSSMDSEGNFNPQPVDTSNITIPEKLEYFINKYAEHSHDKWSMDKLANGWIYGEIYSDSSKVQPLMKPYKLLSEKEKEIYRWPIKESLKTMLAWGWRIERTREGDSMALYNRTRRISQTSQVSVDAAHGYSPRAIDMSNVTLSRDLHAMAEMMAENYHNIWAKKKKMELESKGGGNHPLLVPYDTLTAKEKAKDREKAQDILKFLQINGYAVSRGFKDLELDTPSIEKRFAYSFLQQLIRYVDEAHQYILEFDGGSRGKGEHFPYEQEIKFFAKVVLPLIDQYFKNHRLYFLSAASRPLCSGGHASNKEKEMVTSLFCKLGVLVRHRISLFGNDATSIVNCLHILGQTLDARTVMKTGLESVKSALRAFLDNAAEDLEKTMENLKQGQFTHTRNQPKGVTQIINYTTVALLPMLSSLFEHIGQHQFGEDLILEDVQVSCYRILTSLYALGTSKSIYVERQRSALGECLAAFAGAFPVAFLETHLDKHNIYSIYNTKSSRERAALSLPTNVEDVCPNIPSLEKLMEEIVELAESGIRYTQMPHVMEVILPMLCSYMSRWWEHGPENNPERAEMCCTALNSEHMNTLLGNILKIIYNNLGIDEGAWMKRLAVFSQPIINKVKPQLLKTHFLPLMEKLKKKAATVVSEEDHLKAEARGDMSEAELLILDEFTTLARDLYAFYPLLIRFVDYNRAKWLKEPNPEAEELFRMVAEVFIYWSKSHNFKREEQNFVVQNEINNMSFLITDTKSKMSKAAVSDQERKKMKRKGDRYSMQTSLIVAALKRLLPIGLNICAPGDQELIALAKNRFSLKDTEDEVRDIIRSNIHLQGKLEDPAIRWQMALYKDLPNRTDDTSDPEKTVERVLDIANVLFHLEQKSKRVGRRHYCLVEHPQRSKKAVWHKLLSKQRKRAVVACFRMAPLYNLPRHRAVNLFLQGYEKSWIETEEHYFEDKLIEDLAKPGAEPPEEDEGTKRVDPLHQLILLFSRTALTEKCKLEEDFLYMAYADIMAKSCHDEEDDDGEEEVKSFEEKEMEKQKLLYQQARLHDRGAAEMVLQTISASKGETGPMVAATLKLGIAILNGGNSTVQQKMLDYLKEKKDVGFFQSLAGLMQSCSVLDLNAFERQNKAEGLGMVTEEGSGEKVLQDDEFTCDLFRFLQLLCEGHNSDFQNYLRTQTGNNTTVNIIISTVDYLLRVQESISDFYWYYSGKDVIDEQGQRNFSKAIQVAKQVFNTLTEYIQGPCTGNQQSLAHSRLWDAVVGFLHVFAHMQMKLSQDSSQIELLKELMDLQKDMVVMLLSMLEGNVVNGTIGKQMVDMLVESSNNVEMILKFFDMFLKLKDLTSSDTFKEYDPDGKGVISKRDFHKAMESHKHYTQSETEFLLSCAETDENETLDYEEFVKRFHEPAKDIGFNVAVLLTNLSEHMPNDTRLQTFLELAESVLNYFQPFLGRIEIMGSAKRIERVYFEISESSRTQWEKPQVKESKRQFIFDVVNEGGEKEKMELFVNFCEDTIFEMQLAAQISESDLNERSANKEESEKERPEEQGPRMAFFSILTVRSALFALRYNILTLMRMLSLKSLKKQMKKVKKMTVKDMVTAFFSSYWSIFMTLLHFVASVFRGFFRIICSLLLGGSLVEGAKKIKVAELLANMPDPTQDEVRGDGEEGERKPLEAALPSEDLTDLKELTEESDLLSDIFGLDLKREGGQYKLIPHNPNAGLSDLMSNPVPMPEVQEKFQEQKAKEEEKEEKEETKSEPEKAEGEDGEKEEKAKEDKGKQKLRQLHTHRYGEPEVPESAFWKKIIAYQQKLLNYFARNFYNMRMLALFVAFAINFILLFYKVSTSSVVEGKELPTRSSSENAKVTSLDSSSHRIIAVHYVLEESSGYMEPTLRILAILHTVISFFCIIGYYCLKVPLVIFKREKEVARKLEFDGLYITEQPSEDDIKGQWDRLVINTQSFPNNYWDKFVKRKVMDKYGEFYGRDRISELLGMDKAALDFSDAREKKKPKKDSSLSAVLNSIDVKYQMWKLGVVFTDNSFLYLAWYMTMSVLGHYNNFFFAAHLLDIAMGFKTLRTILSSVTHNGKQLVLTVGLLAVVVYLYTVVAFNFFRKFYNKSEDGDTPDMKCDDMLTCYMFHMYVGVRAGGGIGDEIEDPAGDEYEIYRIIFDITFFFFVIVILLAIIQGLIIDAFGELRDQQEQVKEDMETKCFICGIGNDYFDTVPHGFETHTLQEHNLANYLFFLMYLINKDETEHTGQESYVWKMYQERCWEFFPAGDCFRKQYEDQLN
T1 sequence (P68106 whole entry partner): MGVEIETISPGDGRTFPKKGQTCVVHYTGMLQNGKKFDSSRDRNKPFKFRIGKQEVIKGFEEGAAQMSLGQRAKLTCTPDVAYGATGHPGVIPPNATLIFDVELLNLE

| Compound | Binding [nM] |
| --- | --- |
| COc1ccc2c(c1)CN(C(=O)CCN1CCC(Cc3ccccc3)CC1)C[C@@H](C)O2 | 100 |
| COc1ccc2c(c1)CN(C(=O)CCN1CCC(Cc3ccccc3)CC1)C[C@H](C)O2 | 100 |
| COc1cccc(OC)c1CN(C)C(=O)CCN1CCC(Cc2ccccc2)CC1 | 1000 |
| COc1ccc2c(c1)C/C(=C\CCN1CCC(Cc3ccccc3)CC1)CCS2 | 1000 |
| COc1ccc2c(c1)C/C(=C/CCN1CCC(Cc3ccccc3)CC1)CCS2 | 100 |

Other lines, results leading:

| Binding [nM] | Compound |
| --- | --- |
| 100 | COc1ccc2c(c1)CN(C(=O)CCN1CCC(Cc3ccccc3)CC1)C[C@@H](C)S2 |
| 100 | COc1ccc2c(c1)CN(C(=O)CCN1CCC(Cc3ccccc3)CC1)C(C)CS2 (stereo not drawn) |
| 100 | COc1ccc2c(c1)CN(C(=O)CCN1CCC(Cc3ccccc3)CC1)[C@@H](C)[C@@H](C)S2 |
| 1000 | COc1ccc2c(c1)CN(C(=O)CCN1CCC(Cc3ccccc3)CC1)[C@H](C)[C@H](C)S2 |
